Source: patent US20120196915A1, “Antitumor 1,2-Diphenylpyrrole Compounds and their Preparation Process” (ARGON PHARMA, S.L., priority 2009, published 2012)

Legend:
LS174T cell line = assay: Cell viability assay (XTT), LS174T; format: cell-based, human; details: 4 h exposure, 20, 40 or 60 μM, in comparison with the comparative compound
Protocol: (§1) H-727 and H-460 cell lines, derived from human lung carcinoma, and human prostate carcinoma PC3 cells, were cultured in RPMI 1640 medium supplemented with 10% fetal bovine serum, 1% glutamine and 100 units/ml penicillin/streptomycin (Life Technologies, Inc.). LS174T cells, derived from human colorectal carcinoma, and CAL51 cells, from breast carcinoma, were cultured in DMEM medium supplemented with 10% fetal bovine serum, 1% glutamine and 100 units/ml penicillin/streptomycin (Life Technologies, Inc.). All cell lines were incubated at 37° C. in a humidified atmosphere containing 5% CO2. The stock solution of each compound was reconstituted in DMSO and diluted in culture media before use.
(§2) Antitumor activity was evaluated measuring cell metabolic capacity (viability), using the Cell Proliferation Kit II (XTT) and following the recommendations of the manufacturer (Roche Diagnostics). The assays were carried out in triplicates, with controls containing unexposed cells, cells with vehicle, or media plus compound. Cells were seeded into 96-well plates in 100 μl of media and incubated for 24 h. […] After 4 h of incubation at 37° C., the absorbance at 490 nm was read. The growth inhibitory activity was obtained subtracting the absorbance of the blanks and expressed as percentage of cell growth inhibition, as compared with untreated controls.

H-727 cell line = assay: Cell viability assay (XTT), H-727; format: cell-based, human
Protocol: as §1, §2

H-460 cell line = assay: Cell viability assay (XTT), H-460; format: cell-based, human; details: H-460, 4 h exposure, 20, 40 or 60 μM, in comparison with the comparative compound
Protocol: as §1, §2

CAL51 cell line = assay: Cell viability assay (XTT), CAL51; format: cell-based; details: CAL51, 4 h exposure, 20, 40 or 60 μM, in comparison with the comparative compound
Protocol: as §1, §2

PC3 cell line = assay: Cell viability assay (XTT), PC3; format: cell-based, human; details: PC3, 4 h exposure, 20, 40 or 60 μM, in comparison with the comparative compound
Protocol: as §1, §2

In the case of NS(=O)(=O)c1ccc(-n2cc(C(F)(F)F)cc2-c2cc(C(F)(F)F)cc(C(F)(F)F)c2)cc1 [Example 2, 4-[2-(3,5-Bis(trifluoromethyl)phenyl)-4-(trifluoromethyl)-1H-pyrrol-1-yl]benzenesulfonamide], the tumor cell viability (LS174T cell line) was “significantly reduced tumor cell viability”, the tumor cell viability (H-727 cell line; H-727, 4 h exposure, 20, 40 or 60 μM, in comparison with the comparative compound) was “significantly reduced tumor cell viability” and the “reduction in the tumor cell viability percentage” value (H-727 cell line; H-727, at 40 μm, 4 h, as compared to the comparative example) was “more than 50%”. The tumor cell viability (H-460 cell line) was “significantly reduced tumor cell viability”, the tumor cell viability (CAL51 cell line) was “significantly reduced tumor cell viability” and the tumor cell viability (PC3 cell line) was “significantly reduced tumor cell viability”.
